Experimental data as given in ChEMBL document CHEMBL1255532, “Cytotoxic cycloartane triterpene and rare isomeric bisclerodane diterpenes from the leaves of Polyalthia longifolia var. pendula” (Bioorg Med Chem Lett, 2010).
≈ marks a conversion by molar mass, not a printed value.

Assays:
KB = assay: Cytotoxicity against human KB cells after 48 hrs by SRB assay; format: functional, cell-based
MCF7 = assay: Cytotoxicity against human MCF7 cells after 48 hrs by SRB assay; format: functional, cell-based; conditions: MCF7, 48 h
A549 = assay: Cytotoxicity against human A549 cells after 48 hrs by SRB assay; format: functional, cell-based; conditions: A549, 48 h
C-33-A = assay: Cytotoxicity against human C33A cells after 48 hrs by SRB assay; format: functional, cell-based
[1] = Cytotoxicity against mouse NIH/3T3 cells after 48 hrs by SRB assay; format: cell-based; conditions: NIH3T3, 48 h

Structure (SMILES): CC1=CCC[C@@H]2[C@@](C)(CCC3=CC(=O)N(/C=C(\CC[C@@]4(C)[C@H](C)CC[C@@]5(C)C(C)=CCC[C@H]45)CC(=O)O)C3=O)[C@H](C)CC[C@@]12C [LONGIMIDE A]
- IC50 (KB): 8.85 µg/mL (≈ 14.3 µM)
- IC50 (MCF7): 9.23 µg/mL (≈ 14.9 µM)
- IC50 (A549): 10.1 µg/mL (≈ 16.4 µM)
- IC50 (C-33-A): 4.12 µg/mL (≈ 6.67 µM)
- IC50 [1]: 44.7 µg/mL (≈ 72.3 µM)

Structure (SMILES): COc1cccc2c1C(=O)c1c(O)c3c(c(O)c1C2=O)C[C@@](O)(C(=O)CO)C[C@@H]3O[C@H]1C[C@H](N)[C@H](O)[C@H](C)O1 [DOXORUBICIN]
- IC50 (KB): 0.12 µg/mL (≈ 0.221 µM)
- IC50 (MCF7): 0.45 µg/mL (≈ 0.828 µM)
- IC50 (A549): 0.33 µg/mL (≈ 0.607 µM)
- IC50 (C-33-A): 0.28 µg/mL (≈ 0.515 µM)

Structure (SMILES): C=C(C(C)C)[C@@H](O)C[C@@H](C)[C@H]1[C@@H](O)C[C@@]2(C)[C@@H]3CC[C@H]4C(C)(C)[C@@H](O)CC[C@@]45C[C@@]35CC[C@]12C [LONGITRIOL]
- IC50 (KB): 24.1 µg/mL (≈ 51 µM)
- IC50 (MCF7): 30.9 µg/mL (≈ 65.3 µM)
- IC50 (A549): 13.2 µg/mL (≈ 27.9 µM)
- IC50 (C-33-A): 10 µg/mL (≈ 21.2 µM)
- IC50 [1]: > 50 µg/mL
